# Source: the supplement of paper PMC11451515
# Tested on: NOMO1
# Assay: cell viability relative to DMSO control; higher = less cytotoxic
# Conditions: 48 h
# Outline: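 Leukemia cells (NOMO1 or SEM, 500 cells/well; P12-Ichikawa, 1000 cells/well) were seeded in 5 μl in 1536-well plates after at least four passages of adaptation to each medium. They received library compounds in DMSO by pin dosing, 11 threefold points from 47 μM to 0.79 nM. Luminescence with CellTiter-Glo One was read after 48 h at 37°C. Viability is stated per plate relative to DMSO wells, with cell-free wells as background.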
# [1] = HPLM + 10% dialyzed FBS, 0.000781 µM
# [2] = HPLM + 10% dialyzed FBS, 0.00234 µM
# [3] = HPLM + 10% dialyzed FBS, 0.00702 µM
# [4] = HPLM + 10% dialyzed FBS, 0.0211 µM
# [5] = HPLM + 10% dialyzed FBS, 0.0632 µM
# [6] = HPLM + 10% dialyzed FBS, 0.19 µM
# [7] = HPLM + 10% dialyzed FBS, 0.569 µM
# [8] = HPLM + 10% dialyzed FBS, 1.71 µM
# [9] = HPLM + 10% dialyzed FBS, 5.12 µM
# [10] = HPLM + 10% dialyzed FBS, 15.4 µM
# [11] = HPLM + 10% dialyzed FBS, 46.1 µM
# [12] = RPMI 5 mM glucose + 10% FBS, 0.000781 µM
# [13] = RPMI 5 mM glucose + 10% FBS, 0.00234 µM
# [14] = RPMI 5 mM glucose + 10% FBS, 0.00702 µM
# [15] = RPMI 5 mM glucose + 10% FBS, 0.0211 µM
# [16] = RPMI 5 mM glucose + 10% FBS, 0.0632 µM
# [17] = RPMI 5 mM glucose + 10% FBS, 0.19 µM
# [18] = RPMI 5 mM glucose + 10% FBS, 0.569 µM
# [19] = RPMI 5 mM glucose + 10% FBS, 1.71 µM
# [20] = RPMI 5 mM glucose + 10% FBS, 5.12 µM
# [21] = RPMI 5 mM glucose + 10% FBS, 15.4 µM
# [22] = RPMI 5 mM glucose + 10% FBS, 46.1 µM
# [23] = RPMI 5 mM glucose + 10% dialyzed FBS, 0.000781 µM
# [24] = RPMI 5 mM glucose + 10% dialyzed FBS, 0.00234 µM
# [25] = RPMI 5 mM glucose + 10% dialyzed FBS, 0.00702 µM
# [26] = RPMI 5 mM glucose + 10% dialyzed FBS, 0.0211 µM
# [27] = RPMI 5 mM glucose + 10% dialyzed FBS, 0.0632 µM
# [28] = RPMI 5 mM glucose + 10% dialyzed FBS, 0.19 µM
# [29] = RPMI 5 mM glucose + 10% dialyzed FBS, 0.569 µM
# [30] = RPMI 5 mM glucose + 10% dialyzed FBS, 1.71 µM
# [31] = RPMI 5 mM glucose + 10% dialyzed FBS, 5.12 µM
# [32] = RPMI 5 mM glucose + 10% dialyzed FBS, 15.4 µM
# [33] = RPMI 5 mM glucose + 10% dialyzed FBS, 46.1 µM
SMILES,cell viability [1] [%],cell viability [2] [%],cell viability [3] [%],cell viability [4] [%],cell viability [5] [%],cell viability [6] [%],cell viability [7] [%],cell viability [8] [%],cell viability [9] [%],cell viability [10] [%],cell viability [11] [%],cell viability [12] [%],cell viability [13] [%],cell viability [14] [%],cell viability [15] [%],cell viability [16] [%],cell viability [17] [%],cell viability [18] [%],cell viability [19] [%],cell viability [20] [%],cell viability [21] [%],cell viability [22] [%],cell viability [23] [%],cell viability [24] [%],cell viability [25] [%],cell viability [26] [%],cell viability [27] [%],cell viability [28] [%],cell viability [29] [%],cell viability [30] [%],cell viability [31] [%],cell viability [32] [%],cell viability [33] [%]
O=C(c1ccc(F)cc1)C1CCN(CCn2c(=O)[nH]c3ccccc3c2=O)CC1,122,117,111,128,136,114,127,120,143,111,104,107,118,117,118,105,111,127,106,105,111,98.8,–,–,–,–,–,–,–,–,–,–,–
COc1ccc(CCC(=O)Nc2nc3ccc(Cl)cc3s2)cc1OC,120,106,111,135,122,126,123,101,106,122,86.2,107,104,113,105,122,117,113,94.4,105,100,96.6,114,99.3,119,108,120,110,106,102,104,98.2,91.2
COc1ccc(-c2nc3cc(C4=NNC(=O)CC4C)ccc3[nH]2)cc1 (centres undefined),104,117,107,103,110,119,112,123,119,119,126,91.5,102,100,108,117,118,109,114,102,117,118,116,110,111,105,110,118,104,111,116,110,120
NC/1=N/C(=O)N(/C=C1)[C@H]2CC[C@@H](CO)O2,76,106,107,103,97.5,101,107,92.1,82.8,82.2,14.2,75.6,91.3,85.7,96.4,87.1,92.3,85.7,89.2,91,93.1,8.01,70.8,94.6,92.2,98.5,101,105,108,95.9,74,88.7,6.05
CN(C)[C@H]\1[C@@H]2[C@@H](O)[C@@H]\3C(=C)C4=C(C(=CC=C4)O)C(=O)C3=C(\O)[C@@]2(O)C(=O)\C(=C1O)C(N)=O,130,120,122,128,135,110,111,127,103,107,121,–,–,–,–,–,–,–,–,–,–,–,127,119,121,121,116,112,121,125,111,124,123
CC1=C2N=C([NH]C2=CC(=C1)N3CCOCC3)\C4=C(NC[C@@H](O)C5=CC=CC(=C5)Cl)\C=C/NC4=O,86.2,100,105,99.8,98.4,92.8,79.3,65.4,61.2,44.2,44.7,104,103,109,99.1,95.7,108,89.8,73.7,68.9,65.3,57.4,99.6,101,90.4,91.9,96,87.6,72.8,67.1,53.6,57.2,49.1
COc1cc2nc(-c3ccc(N4CCN(C)CC4)cc3)nc(NCCN3CCOCC3)c2cc1OC,115,112,110,125,113,97.9,48.8,35,22.6,18.8,1.8,102,103,99,94.5,98.7,100,84,47,18.1,9.07,2.08,114,111,103,107,111,95,63.7,28.3,11.1,7.69,1.71
COC1=CC=C2C(=CC=NC2=C1)OC3=CC=C(NC(=O)\C4=C(C)\N(CC(C)(C)O)N(C4=O)C5=CC=CC=C5)C=C3F,124,116,104,115,132,120,108,107,125,110,105,–,–,–,–,–,–,–,–,–,–,–,–,–,–,–,–,–,–,–,–,–,–
CC1(C)O[C@H]2CC(=O)OC[C@]23[C@H]2CC[C@@]4(C)[C@H](c5ccoc5)OC(=O)[C@H]5O[C@]54[C@]2(C)C(=O)C[C@@H]13,114,91.3,98.8,84.5,99.4,110,99.2,115,114,103,87.7,96.8,89.8,93.7,96.1,101,105,98.9,108,98.4,103,97.8,87.2,95.7,83,101,102,98.5,96.7,110,99.1,109,98
CCCCCCCCCCCCCCCC(=O)OC[C@@H](NC(=O)C(Cl)Cl)[C@H](O)c1ccc([N+](=O)[O-])cc1,105,123,126,143,118,141,140,144,141,144,142,–,–,–,–,–,–,–,–,–,–,–,–,–,–,–,–,–,–,–,–,–,–
O=C(C1CCCCC1)N1CC(=O)N2CCc3ccccc3C2C1 (centres undefined),106,147,125,125,126,130,140,110,108,107,114,–,–,–,–,–,–,–,–,–,–,–,–,–,–,–,–,–,–,–,–,–,–
Cn1cc(-c2ccncc2)c(-c2ccc(OCc3ccc4ccccc4n3)cc2)n1,–,–,–,–,–,–,–,–,–,–,–,–,–,–,–,–,–,–,–,–,–,–,102,123,133,125,114,117,131,123,109,111,98.4
CC(C)c1ccc2oc3nc(N)c(C(=O)O)cc3c(=O)c2c1,–,–,–,–,–,–,–,–,–,–,–,121,121,128,137,136,128,123,134,133,130,122,–,–,–,–,–,–,–,–,–,–,–
C=C1C[C@@]2(O)O[C@@]3(C[C@H]2C(C)C)[C@@H](C)CC[C@@H]13,120,94.8,122,133,121,134,114,117,134,132,111,108,114,122,126,136,119,121,122,130,119,135,114,125,118,109,117,122,98.1,102,121,102,124
COc1ccc(-c2c(-c3ccc(O)cc3O)n[nH]c2C)cc1,108,115,105,115,126,117,104,123,83,102,59,89,98.4,105,101,100,113,105,111,106,102,90.3,91,98,102,124,113,110,121,99.1,109,99.1,77.1
CN1C(=O)COc2c(C(=O)NC3CN4CCC3CC4)cc(Cl)cc21 (centres undefined),68.8,121,112,107,105,104,119,109,104,111,108,90.2,106,94.2,88.8,110,109,99,92.1,90.6,105,85.6,104,102,106,93.2,97.1,91.6,97.6,89.7,90.5,85.8,97.7
C[C@H]1CCC/C=C/C2C[C@H](O)C[C@H]2[C@H](O)/C=C/C(=O)O1 (some centres undefined),4.93,15.8,26.7,7.07,5.05,5.57,5.16,4.43,3.51,3.39,2.94,5.4,7,5.78,5.27,5.07,4.51,4.27,3.98,1.66,1.88,3.46,79.5,6.02,10,5.74,4.22,4.83,4.29,3.43,2.6,2.61,2.61
